According to US10300052B2, “Methods for increasing CFTR activity” (THE UAB RESEARCH FOUNDATION, priority 2012, dated 2019):
“Also recorded” adds a separate entry of the source.

Test system: HBE cells
Experiment: μOCT imaging of airway epithelial function in HBE cells containing WT-CFTR
Assay type: cell-based, human
Method: ASL depth is shown as red bar. White scale bar=10 μm.
FIGS. 4A-4D show the effects of CFTR activators on airway epithelial function in human bronchial epithelial cells by μOCT. Control HBE cells containing a defective CFTR (designated control, CF) and HBE cells containing a WT-CFTR (designated control and VX-770, wild-type) received vehicle alone (control; 0.2% DMSO) or ivacaftor (10 μM). FIGS. 4A-4D show ASL depth (FIG. 4A), PCL depth (FIG. 4B), cilia beat frequency (FIG. 4C), and mucociliary transport (MCT) rate (FIG. 4D) as quantified from μOCT images.
FIGS. 5A-5D show the effects of CFTR activators on airway epithelial function in human bronchial epithelial cells by μOCT. […] CSE was applied apically and ivacaftor basolaterally. Cells were exposed to each condition for 24 hrs. ASL depth is shown as a dark bar. White scale bar=10 μm. FIGS. 5B-5D show ASL depth (FIG. 5B), cilia beat frequency (FIG. 5C), and mucociliary transport (MCT) rate (FIG. 5D) as quantified from μOCT images. Data are derived from 5 measures per well, and 3 wells per condition.
The effect of CFTR activators was evaluated using μOCT imaging in HBE cells (FIGS. 4A-4D). […] Mucus and the PCL layer that together comprise the airway surface liquid (ASL) layer can also be clearly visualized. As shown in FIGS. 4A-4D, from top to bottom, the air has no μOCT signal, while the mucus layer appears heterogeneous with high μOCT signal intensity. The PCL gel has a low μCT signal intensity compared with the mucus and monolayer and includes ciliary structures. The air-liquid interface, mucus-PCL interface, and apical cell surface are clearly defined so that ASL and PCL heights can be directly measured with submicrometer resolution. In addition to the different layers, cilia tips can be readily detected by μOCT, as they are brighter than the surrounding PCL and mucus. The tips maintain contact with the deep surface of mucus blanket and lift the mucus nearby by a few hundred nanometers during the effective stroke.
The results in this example, illustrated in FIGS. 4A-4D, confirm the results shown above that CFTR activators increase the activity of WT-CFTR. In FIGS. 4A-4D, control HBE cells containing a defective CFTR (designated control, CF) were used along with HBE cells containing a WT-CFTR (designated control and VX-770, wild-type). Control cells received vehicle alone (0.2% DMSO); ivacaftor was used in all cases at 10 μM. […] In terms of PCL depth, the PCL only extends approximately 7 microns (corresponding to the depth of the full length cilia); further increases are difficult to detect. For CBF, the rate of CBF may not be rate limiting in all conditions. For example, if the cilia were beating against thick mucus (caused for example by mucus overproduction or the inability to clear mucus normally), the CBF would be slower. However, in this assays the determination of CBF is made versus a normal control making meaning an increase in CBF may not be detected in all cases.
Data in FIGS. 5A-5D are derived from 5 measurements per well, with three wells per condition. In FIGS. 5A-5D, all cells contained WT-CFTR; control cells received DMSO vehicle ([…]), CSE indicates cells received 2% CSE extract administered apically; CSE indicates cells received 2% CSE extract administered apically and 10 μM ivacaftor administered basolaterally; VX-770 indicates cells received 10 μM ivacaftor administered basolaterally. All data were derived from μOCT images as described herein.
The μOCT system is a spectral-domain OCT implementation with several improvements to standard OCT that yield high resolution in both lateral and axial directions. The general layout and axial resolution characterization have been described (Liu et al., PLOSOne, 8(1), E54473-2013). A super-continuum source (Fianium SC450) provides the high-bandwidth, short coherence length light necessary for high axial resolution ([…]). […]

In the case of CC(C)(C)c1cc(C(C)(C)C)c(NC(=O)c2c[nH]c3ccccc3c2=O)cc1O [ivacaftor], the MCT (2% CSE apically plus ivacaftor 10 μM basolaterally, 24 hrs (FIG. 5D)) was “increased MCT to that seen in the control cells”, the ASL depth (2% CSE apically plus ivacaftor 10 μM basolaterally, 24 hrs, vs CSE (FIG. 5B)) was “significantly increased” and the PCL depth (ivacaftor 10 μM, as compared to control CF HBE cells (FIG. 4B)) was “increased”. The CBF (ivacaftor 10 μM, as compared to control CF HBE cells (FIG. 4C)) was “increased”, the “overall MCT” value (ivacaftor 10 μM, as compared to control wild-type and control CF cells (FIG. 4D)) was “increased significantly” and the PCL depth (ivacaftor 10 μM, in comparison to control wild-type (FIG. 4B)) was “not increased in a statistically significant manner”. The CBF (ivacaftor 10 μM, in comparison to control wild-type (FIG. 4C)) was “not increased in a statistically significant manner”, the ASL depth (ivacaftor 10 μM, vs control wild-type and control CF HBE cells (FIG. 4A)) was “increased ASL depth significantly above control” and the ASL depth (ivacaftor alone 10 μM basolaterally, 24 hrs, vs control (FIG. 5B)) was “significantly increased”. The MCT (ivacaftor alone 10 μM basolaterally, 24 hrs, vs control (FIG. 5D, FIG. 2D)) was “robust enhancement; also recorded: significantly increased”.
